Experiments:
Format in all cases: cell-based
RC-KB = experiment: MTT cytotoxicity assay, RC-KB; settings: Diffuse large B-cell lymphoma (DLBCL), incubation 48 h
Protocol: (§1) The MTT assay (Sigma-Aldrich) was used to measure cytotoxic capability of the ROR1 tyrosine kinase inhibitors (ROR1-TKI). Briefly, 2×10^4 cancer cells were incubated in triplicates in 200 μL of RPMI-1640 containing 10% FCS in 96 well plates. ROR1-TKI (dissolved in DMSO), were added to the cells. Cells treated with DMSO were used as negative control. Cells were incubated for 48, 72 or 96 h. An amount of 20 μL MTT solution was added and the cell suspension was incubated for 4 h at 37 degrees C. The reaction was stopped by adding 100 μL MTT solvent (10% SDS in 0.01 M HCl) and was incubated for further 2-4 h. The plate was then read by a microplate reader at 570 nm.
(§2) Results, in terms of IC50 (μM), are shown in Table 4 for a representative compound of the invention, viz. Example 172.

SUDHL4 = experiment: MTT cytotoxicity assay, SUDHL4; settings: Homo sapiens, SU-DHL-4, SUDHL4, Diffuse large B-cell lymphoma (DLBCL), incubation 48 h
Protocol: as §1, §2

MS = experiment: MTT cytotoxicity assay, MS; settings: Diffuse large B-cell lymphoma (DLBCL), incubation 48 h
Protocol: as §1, §2

MDA-V [1] = experiment: MTT cytotoxicity assay, MDA-V; settings: Hodgkin’s Lymphoma (HL), incubation 48 h
Protocol: as §1, §2

MDA-V [2] = experiment: Flow cytometry Annexin V/PI apoptosis assay, MDA-V; settings: Hodgkin’s Lymphoma (HL), incubation 48 h
Protocol: (§3) Flow Cytometry Annexin V/PI Apoptosis Assay
(§4) An amount of 1 ml (10^5 cells/mL) of cells were seeded in each well of 6-well plates with and without compounds for 48 h. Cells were collected, washed with PBS, suspended in 100 μL of Annexin-V binding buffer (BD Biosciences) containing FITC-conjugated Annexin-V and PI (BD Biosciences) and incubated at room temperature in the dark for 20 min. After 20 min of incubation, 150 μL Annexin-V binding buffer was added. Viable cells were identified as the double negative Annexin-V and PI population. Samples were analyzed by a FACS Canto II Flow-cytometer (BD Biosciences).
as §2

H82 = experiment: Alamar Blue cell viability assay, H82; settings: Homo sapiens, NCI-H82; H82, Small cell lung cancer, alamarBlue, incubation 72 h
Protocol: (§5) Alamar Blue Cell Viability Assay
(§6) Cells were plated 12 hours prior to start of drug treatment, which lasted for 72 hours for all cytotoxicity experiments. Cell viability was estimated by alamarBlue™ Cell Viability Reagent (ThermoFisher, Waltham, Mass.) per manufacturer's instructions.
as §2

H146 = experiment: Alamar Blue cell viability assay, H146; settings: Homo sapiens, NCI-H146; H146, Small cell lung cancer, alamarBlue, incubation 72 h
Protocol: as §5, §6, §2

H187 = experiment: Alamar Blue cell viability assay, H187; settings: Homo sapiens, NCI-H187; H187, Small cell lung cancer, alamarBlue, incubation 72 h
Protocol: as §5, §6, §2

H209 = experiment: Alamar Blue cell viability assay, H209; settings: Homo sapiens, NCI-H209; H209, Small cell lung cancer, alamarBlue, incubation 72 h
Protocol: as §5, §6, §2

H1417 = experiment: Alamar Blue cell viability assay, H1417; settings: Homo sapiens, NCI-H1417; H1417, Small cell lung cancer, alamarBlue, incubation 72 h
Protocol: as §5, §6, §2

A549 = experiment: MTT cytotoxicity assay, A549; settings: Homo sapiens, A549, Non-small cell lung cancer (NSCLC), incubation 72 h
Protocol: as §1, §2

H1975 = experiment: MTT cytotoxicity assay, H1975; settings: Homo sapiens, NCI-H1975, H1975, Non-small cell lung cancer, incubation 72 h
Protocol: as §1, §2

SEM cells = experiment: MTT cytotoxicity assay, SEM; settings: B-cell acute lymphoblastic leukemia (B-ALL), incubation 48 h
Protocol: as §1, §2

Reh = experiment: Flow cytometry Annexin V/PI apoptosis assay, Reh; settings: Homo sapiens, Non-T-cell non-B-cell-acute lymphoblastic leukemia, incubation 48 h
Protocol: as §3, §4, §2

SupB15 = experiment: MTT cytotoxicity assay, SupB15; settings: Homo sapiens, SUP-B15, SupB15, B-cell acute lymphoblastic leukemia (B-ALL), incubation 48 h
Protocol: as §1, §2

SKOV3 = experiment: MTT cytotoxicity assay, SKOV3; settings: Homo sapiens, SK-OV-3, SKOV3, Ovarian cancer (OC), incubation 48 h
Protocol: as §1, §2

Caov3 = experiment: MTT cytotoxicity assay, Caov3; settings: Homo sapiens, Caov-3, Caov3, Ovarian cancer (OC), incubation 48 h
Protocol: as §1, §2

A2780 = experiment: MTT cytotoxicity assay, A2780; settings: Homo sapiens, A2780, Ovarian cancer (OC), incubation 48 h
Protocol: as §1, §2

Kelly = experiment: MTT cytotoxicity assay, Kelly; settings: Neuroblastoma, incubation 48 h
Protocol: as §1, §2

MDA-MB-231 = experiment: MTT cytotoxicity assay, MDA-MB-231; settings: Homo sapiens, MDA-MB-231, Triple negative breast cancer, incubation 48 h
Protocol: as §1, §2

EHEB = experiment: MTT cytotoxicity assay, EHEB; settings: CLL cell line, DSMZ bank, (ACC 67), incubation 48 h
Protocol: as §1, §2

CCOCCN1CCN(c2ccc(-c3nc4c(NC5CCN(CC)CC5)c(Br)cnc4[nH]3)cc2)CC1 [Example 172, 6-Bromo-2-{4-[4-(2-ethoxyethyl)piperazin-1-yl]phenyl}-N-(1-ethylpiperidin-4-yl)-3H-imidazo[4,5-b]pyridin-7-amine]
IC50 (RC-KB): 100 nM
IC50 (SUDHL4): 50 nM
IC50 (MS): 100 nM
IC50 (MDA-V [1]): 50 nM
IC50 (MDA-V [2]): 100 nM
IC50 (H82): 410 nM
IC50 (H146): 230 nM
IC50 (H187): 230 nM
IC50 (H209): 240 nM
IC50 (H1417): 540 nM
IC50 (A549): 100 nM
IC50 (H1975): 250 nM
IC50 (SEM cells): 25 nM
IC50 (Reh): 41 nM
IC50 (SupB15): 50 nM
IC50 (SKOV3): 250 nM
IC50 (Caov3): 250 nM
IC50 (A2780): 100 nM
IC50 (Kelly): 80 nM
IC50 (MDA-MB-231): 150 nM
IC50 (EHEB): 200 nM
